Laboratory results: paper PMC7571063, “High-Resolution Mass Spectrometry-Based Approaches for the Detection and Quantification of Peptidase Activity in Plasma” (Molecules, 2020)
Entries after “also recorded” stand apart in the source; their conditions may differ.

System: proteases in pooled pig plasma
Test: Multiplex substrate profiling by mass spectrometry (MSP-MS) of pig plasma with the 228-member tetradecapeptide library
Details: pooled pig plasma ~50-fold diluted to 1 mg/mL protein, DPBS 1 mM DTT, room temperature, 15 and 60 min, LC-MS/MS, triplicate
From the text: To quantify proteolytic activity in plasma samples obtained from healthy pigs, we used the MSP-MS assay, which is a global and unbiased substrate-based protease profiling approach. This assay uses a physicochemically diverse library of peptides as substrates for proteases present in a biological sample. Tandem mass spectrometry is used to quantify protease-derived peptide cleavage products. These substrates were designed to contain a unique dipeptide at each terminus (position 1–2 and 13–14) to profile exo-acting proteases and a central decapeptide sequence (position 3–12) consisting of all combinations of neighbor and near-neighbor amino acid pairs that are used to profile endoproteases [10].
Equal volumes of plasma from six pigs were mixed and then diluted to a final concentration of 1 mg/mL protein in assay buffer and mixed with the synthetic peptides. This dilution of ~50-fold reduced the concentration of plasma proteins and peptides in the assay that could interfere with the quantification of the synthetic peptides. Cleavage of synthetic peptides by proteases in neat plasma was predicted to occur in minutes and therefore dilution of plasma decreases the concentration of all proteases so that activity could be monitored at two time intervals over the course of an hour-long assay. This allowed us to detect and quantify peptide cleavage products after 15 and 60 min incubations. […]

## FRIHGFDEAHNAWM
  cleavage site of the library peptide by pig plasma proteases: cleaved between His-Asn; also recorded: cleaved between Ala-Trp
